Where “and” joins values, the source holds several entries; their conditions need not be identical. Equal entries are not always repeated.
Legend:
Test in all cases: biochemical
Set-up in all cases: endogenous in cells; host or cells: K562 cell extract; species or system K562 (extract); replicate k of n = 2 (each experiment ID is one independent experiment; two experiment IDs per compound)
Details in all cases: read-out: KDapp
BMP2K = BMP2K (Homo sapiens, UniProt Q9NSY1)
MAST3 = MAST3 (Homo sapiens, UniProt O60307)
MAST3, sequence (O60307 whole entry): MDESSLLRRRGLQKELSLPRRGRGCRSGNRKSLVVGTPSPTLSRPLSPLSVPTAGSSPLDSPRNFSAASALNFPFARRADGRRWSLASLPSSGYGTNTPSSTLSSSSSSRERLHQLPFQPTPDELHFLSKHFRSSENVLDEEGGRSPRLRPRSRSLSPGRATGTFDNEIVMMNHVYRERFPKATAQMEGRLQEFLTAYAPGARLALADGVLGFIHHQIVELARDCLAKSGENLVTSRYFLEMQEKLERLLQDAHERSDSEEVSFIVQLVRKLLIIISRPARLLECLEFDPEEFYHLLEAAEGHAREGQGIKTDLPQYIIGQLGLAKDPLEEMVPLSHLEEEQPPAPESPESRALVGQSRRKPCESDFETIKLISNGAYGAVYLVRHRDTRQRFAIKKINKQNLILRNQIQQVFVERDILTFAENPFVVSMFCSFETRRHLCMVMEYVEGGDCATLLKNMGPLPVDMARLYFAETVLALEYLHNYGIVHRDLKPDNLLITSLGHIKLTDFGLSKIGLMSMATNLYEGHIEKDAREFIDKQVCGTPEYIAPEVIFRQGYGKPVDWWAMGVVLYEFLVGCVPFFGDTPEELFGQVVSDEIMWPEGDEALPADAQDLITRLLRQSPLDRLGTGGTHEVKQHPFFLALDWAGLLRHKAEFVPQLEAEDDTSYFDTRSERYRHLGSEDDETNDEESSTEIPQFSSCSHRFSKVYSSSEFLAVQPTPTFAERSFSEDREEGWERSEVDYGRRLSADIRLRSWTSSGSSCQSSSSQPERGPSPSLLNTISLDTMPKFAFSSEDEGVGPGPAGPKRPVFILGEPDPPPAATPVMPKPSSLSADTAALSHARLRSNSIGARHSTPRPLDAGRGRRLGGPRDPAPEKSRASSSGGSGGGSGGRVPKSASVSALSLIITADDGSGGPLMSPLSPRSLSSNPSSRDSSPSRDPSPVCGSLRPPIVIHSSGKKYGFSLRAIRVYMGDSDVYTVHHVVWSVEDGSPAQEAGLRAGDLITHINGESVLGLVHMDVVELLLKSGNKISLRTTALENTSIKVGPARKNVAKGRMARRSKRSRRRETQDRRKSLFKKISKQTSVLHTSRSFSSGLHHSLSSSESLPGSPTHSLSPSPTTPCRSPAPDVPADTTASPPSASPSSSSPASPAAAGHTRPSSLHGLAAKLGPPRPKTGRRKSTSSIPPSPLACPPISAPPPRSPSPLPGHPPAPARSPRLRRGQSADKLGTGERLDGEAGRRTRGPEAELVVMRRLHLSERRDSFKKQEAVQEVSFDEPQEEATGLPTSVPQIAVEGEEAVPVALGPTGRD

PRKACA = PRKACA (Homo sapiens, UniProt P17612)
TEC = molecular target: T1, TEC (Homo sapiens, UniProt P42680)
T1 sequence (P42680 1-631): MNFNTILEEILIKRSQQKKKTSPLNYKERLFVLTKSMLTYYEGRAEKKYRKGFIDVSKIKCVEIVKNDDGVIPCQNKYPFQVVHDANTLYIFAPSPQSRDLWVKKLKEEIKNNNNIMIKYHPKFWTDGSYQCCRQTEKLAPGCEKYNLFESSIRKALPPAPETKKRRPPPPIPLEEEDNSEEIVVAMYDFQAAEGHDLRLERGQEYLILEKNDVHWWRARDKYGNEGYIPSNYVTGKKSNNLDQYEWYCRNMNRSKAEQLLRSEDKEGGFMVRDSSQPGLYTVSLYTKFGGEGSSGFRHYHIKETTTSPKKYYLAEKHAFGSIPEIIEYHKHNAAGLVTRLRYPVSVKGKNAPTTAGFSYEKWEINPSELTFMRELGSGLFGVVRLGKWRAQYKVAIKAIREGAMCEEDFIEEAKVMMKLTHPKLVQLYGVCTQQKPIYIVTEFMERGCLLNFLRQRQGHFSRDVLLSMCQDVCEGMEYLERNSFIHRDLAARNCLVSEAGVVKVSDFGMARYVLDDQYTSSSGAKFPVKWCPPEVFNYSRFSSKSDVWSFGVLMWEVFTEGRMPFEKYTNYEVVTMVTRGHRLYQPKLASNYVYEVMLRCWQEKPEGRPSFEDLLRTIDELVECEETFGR

MARK4 = molecular target: T2, MARK4 (Homo sapiens, UniProt Q96L34)
T2 sequence (Q96L34 1-752): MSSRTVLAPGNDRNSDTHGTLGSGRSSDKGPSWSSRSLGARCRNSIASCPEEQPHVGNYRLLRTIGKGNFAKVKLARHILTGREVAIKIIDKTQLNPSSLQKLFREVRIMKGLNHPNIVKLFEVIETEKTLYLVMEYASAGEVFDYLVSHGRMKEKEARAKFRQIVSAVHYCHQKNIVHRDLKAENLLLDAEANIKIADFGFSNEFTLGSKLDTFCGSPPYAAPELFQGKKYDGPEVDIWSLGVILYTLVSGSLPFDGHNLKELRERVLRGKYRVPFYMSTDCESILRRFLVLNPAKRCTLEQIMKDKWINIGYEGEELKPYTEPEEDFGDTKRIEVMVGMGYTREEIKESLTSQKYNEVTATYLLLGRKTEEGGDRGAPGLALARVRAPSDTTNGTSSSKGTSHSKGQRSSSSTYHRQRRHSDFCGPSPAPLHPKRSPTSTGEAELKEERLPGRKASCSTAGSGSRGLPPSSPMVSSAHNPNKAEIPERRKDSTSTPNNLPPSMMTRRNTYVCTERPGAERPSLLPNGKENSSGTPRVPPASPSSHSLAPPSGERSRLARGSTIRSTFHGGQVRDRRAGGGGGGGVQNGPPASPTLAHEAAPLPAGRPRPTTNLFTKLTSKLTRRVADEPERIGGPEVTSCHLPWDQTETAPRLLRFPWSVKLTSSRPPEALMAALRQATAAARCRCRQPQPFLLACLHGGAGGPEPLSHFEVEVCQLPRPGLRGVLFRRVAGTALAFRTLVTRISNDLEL

TNK1 = molecular target: T3, TNK1 (Homo sapiens, UniProt Q13470)
T3 sequence (Q13470 1-666): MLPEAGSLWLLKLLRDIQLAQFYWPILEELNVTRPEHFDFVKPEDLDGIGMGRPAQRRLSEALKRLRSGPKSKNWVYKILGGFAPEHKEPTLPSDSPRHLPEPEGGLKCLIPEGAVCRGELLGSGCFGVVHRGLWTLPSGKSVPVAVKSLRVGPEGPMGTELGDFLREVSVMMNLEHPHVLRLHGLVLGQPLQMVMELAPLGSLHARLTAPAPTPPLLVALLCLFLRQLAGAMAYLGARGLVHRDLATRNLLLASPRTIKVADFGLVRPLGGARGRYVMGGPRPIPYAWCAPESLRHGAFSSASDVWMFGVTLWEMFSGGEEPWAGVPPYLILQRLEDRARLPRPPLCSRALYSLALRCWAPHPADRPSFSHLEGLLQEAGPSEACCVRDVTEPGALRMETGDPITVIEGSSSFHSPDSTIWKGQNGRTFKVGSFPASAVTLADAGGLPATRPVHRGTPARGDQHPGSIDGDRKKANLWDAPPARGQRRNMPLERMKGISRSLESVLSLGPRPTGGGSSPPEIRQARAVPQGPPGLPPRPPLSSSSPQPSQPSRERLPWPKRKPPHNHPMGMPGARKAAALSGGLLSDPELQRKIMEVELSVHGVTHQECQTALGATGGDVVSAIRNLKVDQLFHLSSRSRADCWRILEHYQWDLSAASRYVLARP

BMP2K, sequence (Q9NSY1 whole entry): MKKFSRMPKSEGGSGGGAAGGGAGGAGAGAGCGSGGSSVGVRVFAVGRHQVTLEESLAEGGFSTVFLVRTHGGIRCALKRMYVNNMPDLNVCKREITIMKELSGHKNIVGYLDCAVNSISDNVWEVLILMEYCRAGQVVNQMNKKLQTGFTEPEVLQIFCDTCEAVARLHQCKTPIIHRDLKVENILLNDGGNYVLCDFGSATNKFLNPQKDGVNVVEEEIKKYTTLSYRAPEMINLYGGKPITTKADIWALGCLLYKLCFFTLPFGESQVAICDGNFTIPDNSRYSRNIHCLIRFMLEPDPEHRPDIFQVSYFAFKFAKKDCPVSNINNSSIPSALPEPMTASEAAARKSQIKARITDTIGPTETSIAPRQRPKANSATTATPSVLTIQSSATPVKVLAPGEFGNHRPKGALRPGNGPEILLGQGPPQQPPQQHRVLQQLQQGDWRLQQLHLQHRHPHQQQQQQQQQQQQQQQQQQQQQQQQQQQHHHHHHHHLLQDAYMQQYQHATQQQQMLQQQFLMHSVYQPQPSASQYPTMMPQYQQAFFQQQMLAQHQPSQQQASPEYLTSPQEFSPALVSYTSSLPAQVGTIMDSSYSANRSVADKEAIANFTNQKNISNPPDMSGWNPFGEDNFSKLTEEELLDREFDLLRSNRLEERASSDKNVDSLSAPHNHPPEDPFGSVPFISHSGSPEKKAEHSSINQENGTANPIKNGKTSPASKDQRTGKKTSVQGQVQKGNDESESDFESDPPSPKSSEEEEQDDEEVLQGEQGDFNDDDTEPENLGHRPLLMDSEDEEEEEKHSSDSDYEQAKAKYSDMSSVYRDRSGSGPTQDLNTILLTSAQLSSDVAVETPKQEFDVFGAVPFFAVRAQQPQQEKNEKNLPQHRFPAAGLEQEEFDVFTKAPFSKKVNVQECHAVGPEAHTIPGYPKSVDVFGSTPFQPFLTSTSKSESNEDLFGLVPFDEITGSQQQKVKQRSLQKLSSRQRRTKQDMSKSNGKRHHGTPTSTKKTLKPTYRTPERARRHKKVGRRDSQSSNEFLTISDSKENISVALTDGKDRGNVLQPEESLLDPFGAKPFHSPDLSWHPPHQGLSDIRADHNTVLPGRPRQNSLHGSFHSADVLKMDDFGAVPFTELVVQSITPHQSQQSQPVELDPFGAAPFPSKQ

Structure (SMILES)	Kd (BMP2K)	Kd (MAST3) [nM]	Kd (PRKACA) [nM]	Kd (TEC)	Kd (MARK4)	Kd (TNK1)
CN1CCN(c2ccc(Nc3ncc(C#N)c(Nc4ccccc4C(N)=O)n3)cc2)CC1.Cl [TCMDC-134116]	112 nM and 92.8 nM	73.1	1330	137 nM and 146 nM		
CN(C)CC(O)COc1ccc(Nc2ncc([N+](=O)[O-])c(Nc3ccccc3O)n2)cc1.O=C(O)C(F)(F)F (stereo not drawn) [TCMDC-141399]					6160 nM and 3900 nM	1150 nM and 464 nM
